The results in this text go back to patent US9681664B2, “Macrocyclic picolinamides as fungicides” (Dow Agrosciences LLC, priority 2012, dated 2017).

Read-outs that look alike come from different tables or passages of the source. Bounds are passed on as bounds.

Assay type in all cases: in vivo
One assay concerns Phakopsora pachyrhizi. Nature of the assay: Asian soybean rust (PHAKPA) disease control. Conditions: topical, high volume. How it is done: Technical grades of materials were dissolved in acetone, which were then mixed with nine volumes of water containing 0.011% Tween 20. The fungicide solutions were applied onto soybean seedlings using an automated booth sprayer to run-off. All sprayed plants were allowed to air dry prior to further handling.
Soybean plants (variety Williams 82) were grown in soil-less Metro mix, with one plant per pot. Two weeks old seedlings were used for testing. Plants were inoculated either 3 days prior to or 1 day after fungicide treatments. Plants were incubated for 24 h in a dark dew room at 22° C. and 100% RH then transferred to a growth room at 23° C. for disease to develop. Disease severity was assessed on the sprayed leaves.

For assay [1], the system named is Mycosphaerella graminicola; Anamorph: Septoria tritici. Nature of the assay: Leaf blotch of wheat (SEPTTR) disease control on wheat seedlings. Conditions: Zymoseptoria tritici; for pest or weed control at 121.5 g/ha: low volume application, 121.5 g/H. In a few lines: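 Protective or curative format: Septoria tritici inoculation either preceded or followed fungicide application to first-leaf Yuma wheat. Severity scored 0–100%; control expressed versus untreated.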

The test system of assay [2] is Puccinia triticina; Synonym: Puccinia recondite f. sp. tritici. Briefly: Wheat brown rust (PUCCRT) disease control on wheat seedlings. Conditions: Puccinia triticina; for pest or weed control at 121.5 g/ha: low volume application, 121.5 g/H. In outline:
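Yuma wheat grown to first fully emerged leaf was inoculated with Puccinia triticina spore suspension either before or after fungicide treatment, held overnight at 22° C. and 100% RH in darkness, then kept at 24° C. Fungicide applied by booth sprayer to run-off (acetone/water, 110 ppm Triton X-100) or as EC by track spray.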

Setting [3] is: 24 h, 1 Day Protectant, read-out: Disease Control PHAKPA 1DP.
The mark [4] stands for this setting: 24 h, High volume application, 1 Day Protectant, read-out: SEPTTR 1DP disease control.
[5] abbreviates: 72 h, High volume application, 3 Day Curative, read-out: SEPTTR 3DC disease control.
The mark [6] stands for this setting: 24 h, High volume application, 1 Day Protectant, read-out: PUCCRT 1DP disease control.
Where [7] appears, read: 72 h, High volume application, 3 Day Curative, read-out: PUCCRT 3DC disease control.
The mark [8] stands for this setting: 24 h, Wheat Leaf Blotch, 1 Day Protectant, high volume application, read-out: Disease Control SEPTTR 1 DP 100 ppm.
[9] abbreviates: 24 h, Wheat Leaf Blotch, 1 Day Protectant, read-out: Disease Control SEPTTR 1 DP 121.5 g/H.
Where [10] appears, read: 72 h, Wheat Leaf Blotch, 3 Day Curative, high volume application, read-out: Disease Control SEPTTR 3 DC 100 ppm.
Setting [11] is: 72 h, Wheat Leaf Blotch, 3 Day Curative, read-out: Disease Control SEPTTR 3 DC 121.5 g/H.
Setting [12] is: 24 h, Wheat Brown Rust, 1 Day Protectant, high volume application, read-out: Disease Control PUCCRT 1 DP 100 ppm.
Where [13] appears, read: 24 h, Wheat Brown Rust, 1 Day Protectant, read-out: Disease Control PUCCRT 1 DP 121.5 g/H.
Setting [14] is: 72 h, Wheat Brown Rust, 3 Day Curative, high volume application, read-out: Disease Control PUCCRT 3 DC 100 ppm.
The mark [15] stands for this setting: 72 h, Wheat Brown Rust, 3 Day Curative, read-out: Disease Control PUCCRT 3 DC 121.5 g/H.

Regarding `CCCO[C@H]1[C@H](C)OC(=O)[C@@H](NC(=O)c2nccc(OC)c2OC(C)=O)CCC[C@@H]1OCC(C)C` [F47], the pest or weed control at 25 ppm in the assay with Phakopsora pachyrhizi (setting [3]) was below 0%. Further, the pest or weed control at 100 ppm in assay [1] (setting [4]), in assay [1] (setting [5]), in assay [2] (setting [6]) and in assay [2] (setting [7]) was 80 to 100% each time.
As to `COc1ccnc(C(=O)N[C@H]2CCC[C@H](OC3CCCC3)[C@@H](Oc3ccccc3)[C@H](C)OC2=O)c1OCOC(=O)C(C)C` [F79], in the assay with Phakopsora pachyrhizi (setting [3]), the pest or weed control at 25 ppm was in the range of 80 to 100%. The pest or weed control at 100 ppm in assay [1] (setting [4]), in assay [1] (setting [5]), in assay [2] (setting [6]) and in assay [2] (setting [7]) was 80 to 100% throughout.
As for `COc1ccnc(C(=O)N[C@H]2CCC[C@H](OC3CCCC3)[C@@H](OC3CCCC3)[C@H](C)OC2=O)c1OC(C)=O` [F77], the pest or weed control at 25 ppm in the assay with Phakopsora pachyrhizi (setting [3]) was 80 to 100%. In addition, the pest or weed control at 100 ppm in assay [1] (setting [4]), in assay [1] (setting [5]), in assay [2] (setting [6]) and in assay [2] (setting [7]) was 80 to 100% in each case.
For the molecule `COCCC(=O)Oc1c(OC)ccnc1C(=O)N[C@H]1CCC[C@H](Oc2ccccc2)[C@@H](OC(=O)C2CC2)[C@H](C)OC1=O` [F243], the pest or weed control at 25 ppm in the assay on Phakopsora pachyrhizi (setting [3]) was in the range of 80 to 100%; with Phakopsora pachyrhizi (72 h, 3 Day Curative, read-out: Disease Control PHAKPA 3DC) it was 0 to 80%. Also, the pest or weed control at 100 ppm in assay [1] (setting [8]), in assay [1] (setting [10]), in assay [2] (setting [12]) and in assay [2] (setting [14]) was 80 to 100% each time. In addition, the pest or weed control at 121.5 g/ha was 0 to 80% in assay [1] (setting [9]), 80 to 100% in assay [1] (setting [11]), 80 to 100% in assay [2] (setting [13]) and 80 to 100% in assay [2] (setting [15]).
Regarding `COc1ccnc(C(=O)N[C@H]2CCC[C@H](OC3CCCC3)[C@@H](OC3CCCC3)[C@H](C)OC2=O)c1OCOC(=O)C(C)C` [F76], the pest or weed control at 25 ppm in the assay with Phakopsora pachyrhizi (setting [3]) is 80 to 100%. The pest or weed control at 100 ppm in assay [1] (setting [4]), in assay [1] (setting [5]), in assay [2] (setting [6]) and in assay [2] (setting [7]) was 80 to 100% in each case.
For `COc1ccnc(C(=O)N[C@H]2CCC[C@H](OCC(C)C)[C@@H](OC/C=C/C(F)(F)F)[C@H](C)OC2=O)c1OCOC(C)=O` [F59], the pest or weed control at 25 ppm with Phakopsora pachyrhizi (setting [3]) lay in the range of 80 to 100%. Besides, the pest or weed control at 100 ppm in assay [1] (setting [4]), in assay [1] (setting [5]), in assay [2] (setting [6]) and in assay [2] (setting [7]) was 80 to 100% throughout.
With `COc1ccnc(C(=O)N[C@H]2CCC[C@H](OCCCC(F)(F)F)[C@@H](OCCCC(F)(F)F)[C@H](C)OC2=O)c1OC(C)=O` [F90], the pest or weed control at 100 ppm in assay [1] (setting [4]), in assay [1] (setting [5]), in assay [2] (setting [6]) and in assay [2] (setting [7]) was 80 to 100% each time.
In the case of `COc1ccnc(C(=O)N[C@H]2CCC[C@H](Oc3ccc(F)cc3)[C@@H](OC3CCCC3)[C@H](C)OC2=O)c1OCOC(C)=O` [F162], the pest or weed control at 100 ppm in assay [1] (setting [4]) was 80 to 100%; in assay [1] (setting [5]), 80 to 100%; in assay [2] (setting [6]), 80 to 100%; in assay [2] (setting [7]) it was 0 to 80%.
For `COc1ccnc(C(=O)N[C@H]2CCC[C@H](OCCCc3ccccc3)[C@@H](OC3CCCC3)[C@H](C)OC2=O)c1O` [F224], the pest or weed control at 100 ppm was in the range of 0 to 80% in assay [1] (setting [4]), 0 to 80% in assay [1] (setting [5]), 80 to 100% in assay [2] (setting [6]) and 0 to 80% in assay [2] (setting [7]).
Consider `C=C(C)CO[C@H]1CCC[C@H](NC(=O)c2nccc(OC)c2O)C(=O)O[C@@H](C)[C@@H]1OC` [F245], for which the pest or weed control at 100 ppm in assay [1] (setting [8]) is 0 to 80%; in assay [1] (setting [10]), 80 to 100%; in assay [2] (setting [12]), 80 to 100%; in assay [2] (setting [14]), 0 to 80%.
With `COc1ccnc(C(=O)N[C@H]2CCC[C@H](Oc3ccc(F)cc3)[C@@H](Oc3ccc(F)cc3)[C@H](C)OC2=O)c1OCOC(=O)C(C)C` [F49], the pest or weed control at 100 ppm in assay [1] (setting [4]), in assay [1] (setting [5]), in assay [2] (setting [6]) and in assay [2] (setting [7]) was 80 to 100% throughout.
Regarding `COc1ccnc(C(=O)N[C@H]2CCC[C@H](Oc3ccc(F)cc3)[C@@H](OC3CCCC3)[C@H](C)OC2=O)c1OCOC(=O)C(C)C` [F161], the pest or weed control at 100 ppm in assay [1] (setting [4]), in assay [1] (setting [5]), in assay [2] (setting [6]) and in assay [2] (setting [7]) was 80 to 100% throughout.
On to `COCCC(=O)Oc1c(OC)ccnc1C(=O)N[C@H]1CCC[C@H](OC2CCCC2)[C@@H](OC(=O)C2CC2)[C@H](C)OC1=O` [F147], for which the pest or weed control at 100 ppm in assay [1] (setting [4]), in assay [1] (setting [5]), in assay [2] (setting [6]) and in assay [2] (setting [7]) was 80 to 100% in each case.
Take `COc1ccnc(C(=O)N[C@H]2CCC[C@H](OCCCC(F)(F)F)[C@@H](OCCCC(F)(F)F)[C@H](C)OC2=O)c1OCOC(=O)C(C)C` [F100]: the pest or weed control at 100 ppm in assay [1] (setting [4]), in assay [1] (setting [5]), in assay [2] (setting [6]) and in assay [2] (setting [7]) was 80 to 100% each time.
In the case of `CCCO[C@H]1CCC[C@H](NC(=O)c2nccc(OC)c2O)C(=O)O[C@@H](C)[C@@H]1Oc1ccccc1` [F127], the pest or weed control at 100 ppm in assay [1] (setting [4]), in assay [1] (setting [5]), in assay [2] (setting [6]) and in assay [2] (setting [7]) was 80 to 100% throughout.
For the molecule `CCCO[C@H]1[C@H](C)OC(=O)[C@@H](NC(=O)c2nccc(OC)c2OCOC(C)=O)CCC[C@@H]1Oc1ccc(F)cc1` [F267], the pest or weed control at 100 ppm in assay [1] (setting [8]), in assay [1] (setting [10]), in assay [2] (setting [12]) and in assay [2] (setting [14]) was 80 to 100% throughout.
With `COc1ccnc(C(=O)N[C@H]2CCC[C@H](OCCCC(F)(F)F)[C@@H](Oc3ccccc3)[C@H](C)OC2=O)c1O` [F129], the pest or weed control at 100 ppm in assay [1] (setting [4]) was 80 to 100%; in assay [1] (setting [5]) it was below 0%; in assay [2] (setting [6]), 80 to 100%; in assay [2] (setting [7]), 80 to 100%.
Take `CCCOC(=O)O[C@H]1CCC[C@H](NC(=O)c2nccc(OC)c2O)C(=O)O[C@@H](C)[C@@H]1Oc1cc(C)cc(C)c1` [F290]: the pest or weed control at 100 ppm in assay [1] (setting [8]) fell in the range of 0 to 80%; in assay [1] (setting [10]), 0 to 80%; in assay [2] (setting [12]) it was 80 to 100%; in assay [2] (setting [14]), 80 to 100%.
On to `CCCO[C@H]1CCC[C@H](NC(=O)c2nccc(OC)c2OC(C)=O)C(=O)O[C@@H](C)[C@@H]1Oc1ccc(-c2ccccc2)cc1` [F287], for which the pest or weed control at 100 ppm in assay [1] (setting [8]), in assay [1] (setting [10]), in assay [2] (setting [12]) and in assay [2] (setting [14]) was 80 to 100% in each case. For the same molecule, the pest or weed control at 121.5 g/ha in assay [1] (setting [9]), in assay [1] (setting [11]), in assay [2] (setting [13]) and in assay [2] (setting [15]) was 80 to 100% in each case.
`COc1ccnc(C(=O)N[C@H]2CCC[C@H](Oc3ccc(F)cc3)[C@@H](OCC(C)C)[C@H](C)OC2=O)c1O` [F56]: the pest or weed control at 100 ppm in assay [1] (setting [4]), in assay [1] (setting [5]), in assay [2] (setting [6]) and in assay [2] (setting [7]) was 80 to 100% in each case.
As to `COc1ccnc(C(=O)N[C@H]2CCC[C@H](Oc3ccccc3)[C@@H](OCCCc3ccccc3)[C@H](C)OC2=O)c1O` [F111], the pest or weed control at 100 ppm in assay [1] (setting [4]) was 0 to 80%; in assay [1] (setting [5]), 0 to 80%; in assay [2] (setting [6]), 80 to 100%; in assay [2] (setting [7]), below 0%.
